Data taken from patent US20050209278A1, “Piperidinyl- and piperazinyl-sulfonylmethyl hydroxamic acids and their use as protease inhibitors” (priority 2002, published 2005).
Where two headings read alike, the source gives them in different places.

How the values were obtained:
[1] = target: T1, MMP-1 (Homo sapiens, UniProt P03956); assay: In vitro MMP inhibition, IC50 determination (fluorogenic substrate I); format: biochemical; settings: read-out: MMP-1 (IC-50)
T1 construct: made in house; host or cells: MMP-1-transfected HT-1080 cells (spent media)
T1 sequence (P03956 100-469): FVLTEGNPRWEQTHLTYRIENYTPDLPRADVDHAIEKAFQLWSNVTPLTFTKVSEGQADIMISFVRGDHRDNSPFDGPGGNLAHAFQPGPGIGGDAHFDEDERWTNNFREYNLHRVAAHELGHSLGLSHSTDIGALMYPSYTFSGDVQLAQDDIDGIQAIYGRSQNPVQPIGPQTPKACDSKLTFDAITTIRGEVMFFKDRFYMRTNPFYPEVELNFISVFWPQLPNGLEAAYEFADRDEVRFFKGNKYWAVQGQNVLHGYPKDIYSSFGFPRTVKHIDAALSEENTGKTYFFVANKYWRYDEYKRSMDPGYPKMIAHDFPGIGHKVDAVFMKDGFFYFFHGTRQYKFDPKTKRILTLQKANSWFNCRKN

[2] = target: T2, MMP-9 (Homo sapiens, UniProt P14780); assay: as above; format: biochemical; settings: read-out: MMP-9 (IC-50)
T2 construct: made in house; host or cells: MMP-9-transfected HT1080 cells (spent media)
T2 sequence (P14780 107-707 limits assumed): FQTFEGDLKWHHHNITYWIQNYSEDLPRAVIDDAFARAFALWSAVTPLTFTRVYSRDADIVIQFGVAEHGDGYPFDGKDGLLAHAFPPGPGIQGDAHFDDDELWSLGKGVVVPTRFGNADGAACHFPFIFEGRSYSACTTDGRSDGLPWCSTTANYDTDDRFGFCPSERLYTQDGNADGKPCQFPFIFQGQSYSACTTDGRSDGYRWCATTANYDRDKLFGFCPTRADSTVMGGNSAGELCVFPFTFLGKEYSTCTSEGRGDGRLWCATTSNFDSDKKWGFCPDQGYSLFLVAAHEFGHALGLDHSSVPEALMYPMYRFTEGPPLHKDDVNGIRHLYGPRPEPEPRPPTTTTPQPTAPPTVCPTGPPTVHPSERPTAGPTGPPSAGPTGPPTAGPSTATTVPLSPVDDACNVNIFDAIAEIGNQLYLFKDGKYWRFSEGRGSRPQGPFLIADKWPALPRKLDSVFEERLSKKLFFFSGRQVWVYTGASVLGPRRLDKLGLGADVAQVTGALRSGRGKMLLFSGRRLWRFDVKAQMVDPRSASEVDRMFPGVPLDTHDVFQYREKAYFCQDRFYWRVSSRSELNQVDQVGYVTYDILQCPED

Compound | IC50 ([1]; value in parenthesis) | IC50 ([2]; value in parenthesis) | IC50 ([1]; value in parentheses) | IC50 ([2]; value in parentheses)
CCOCCCc1ccc(N2CCN(S(=O)(=O)C3(C(=O)NO)CCN(CCOC)CC3)CC2)cc1 [Example 179] | > 10000 nM | 3.39 nM | – | –
COCCCc1ccc(N2CCN(S(=O)(=O)C3(C(=O)NO)CCN(CCOC)CC3)CC2)cc1 [Example 180] | > 10000 nM | 2.25 nM | – | –
CCC(CC)Cc1ccc(N2CCN(S(=O)(=O)C3(C(=O)NO)CCN(CCOC)CC3)CC2)cc1 [Example 188] | > 10000 nM | 33.7 nM | – | –
COCCN1CCC(C(=O)NO)(S(=O)(=O)N2CCN(c3ccc(CCC4CCCC4)cc3)CC2)CC1 [Example 182] | > 10000 nM | 1.72 nM | – | –
CCc1cnc(N2CCN(S(=O)(=O)C3(C(=O)NO)CCN(CCOC)CC3)CC2)nc1 [Example 187] | > 10000 nM | 155 nM | – | –
COCCN1CCC(C(=O)NO)(S(=O)(=O)N2CCN(c3ccc(CC4CCC4)cc3)CC2)CC1 [Example 183] | > 10000 nM | 1.67 nM | – | –
COCCN1CCC(C(=O)NO)(S(=O)(=O)N2CCN(c3ccc(CC4CCCCC4)cc3)CC2)CC1 [Example 181] | > 10000 nM | 45.6 nM | – | –
CCCCOc1ccc(N2CCN(S(=O)(=O)C3(C(=O)NO)CCN(C(=O)CCC)CC3)CC2)cc1 [Example 290] | – | – | > 10000 nM | 1.42 nM
CCOc1ccc(N2CCN(S(=O)(=O)C3(C(=O)NO)CCN(CCOC)CC3)CC2)cc1F [Example 184] | > 10000 nM | 2.79 nM | – | –
CCCOc1ccc(N2CCN(S(=O)(=O)C3(C(=O)NO)CCN(CCOC)CC3)CC2)cc1F [Example 185] | > 10000 nM | 1.19 nM | – | –
COCCN1CCC(C(=O)NO)(S(=O)(=O)N2CCN(c3ccc(C#N)cc3)CC2)CC1 [Example 186] | > 10000 nM | 55.8 nM | – | –
